Test results taken from patent US20240252677A1, “ONE-COMPONENT DELIVERY SYSTEM FOR NUCLEIC ACIDS” (The Trustees of the University of Pennsylvania, priority 2021, published 2024).

Key:
[1] = Stability of DNPs by DLS after storage at 5° C.; type: physicochemical; design: key to Original size distribution type (DLS curve) / Size distribution type (DLS curve): U: DLS curve showed unimodal size distribution; B: DLS curve showed bimodal size distribution; M: DLS curve showed multimodal size distribution; conditions: for pH Sample: DNPs: IAJD 4.0 mg/mL + Luc-mRNA 0.1 mg/mL, injection in acetate buffer pH 4.00; for Size distribution type (DLS curve) / PDI / Size (d, nm): after 27 days at 5° C.; for PDI / Size (d, nm) / Original size distribution type (DLS curve): IAJD 4.0 mg/mL + Luc-mRNA 0.1 mg/mL; for PDI / Size (d, nm): acetate buffer; for Original size distribution type (DLS curve): before storage, acetate buffer pH 4.00
Summary of the method: (§1)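 DNPs in acetate buffer sized by DLS after storage at 5 °C. Stability ranked Excellent, Good or Not stable according to retention, shrinkage or growth of original size and narrowing or broadening of size distribution.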

[2] = pKa measurements of individual IAJD molecules by titration; type: physicochemical; conditions: ethanol saturated with NaCl, titrated with 0.1 M aqueous HCl; individual IAJD molecules, titration
Summary of the method: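 Compound dissolved at 1.5 mg/mL in NaCl-saturated ethanol and titrated with 0.1 M HCl in 7.5 μL steps, pH read by electrode after each addition. pKa taken from the half-equivalence point.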

[3] = Dimensions (size, PDI) of DNPs co-assembled from IAJDs and Luc-mRNA by DLS; type: physicochemical
Summary of the method: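 IAJDs (80 mg/mL ethanol stock) rapidly injected into Luc-mRNA (4.0 mg/mL stock) diluted in 10 mM acetate buffer pH 4.0, then vortexed 5 s. Size and polydispersity of resulting DNPs measured by DLS (633 nm laser, 175° detection) at 23 °C.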

[4] = Stability of DNPs by DLS after storage at 5° C.; type: physicochemical; design: key: Excellent: the original sizes and distribution types remained almost the same after storage; Good: the original sizes and distribution types changed slightly (size difference was less than 100 nm) or the original size remained almost the same but the DLS curve showed more size distributions after storage; conditions: after 27 days at 5° C.
Summary of the method: as §1

lung = assay: In vivo mRNA delivery, IVIS imaging of organs: lung; design: species or system mice; key to Organs with luminescence: lung: strong: Strong meant the luminescence intensity in that organ was relatively high, compared to other organs; weak: Weak meant the luminescence intensity in that organ was relatively low, compared to other organs; conditions: Table 17; mice, IVIS, 4-6 h after injection; intensity relative to other organs
liver = assay: In vivo mRNA delivery, IVIS imaging of organs: liver; design: species or system mice; key to Organs with luminescence: liver: strong: Strong meant the luminescence intensity in that organ was relatively high, compared to other organs; weak: Weak meant the luminescence intensity in that organ was relatively low, compared to other organs; conditions: Table 17; mice, IVIS, 4-6 h after injection; intensity relative to other organs
[5] = Table 16, DNPs from IAJD 4 mg/mL and Luc-mRNA 0.10 mg/mL by injection in acetate buffer (10 mM, pH 4.0)
[6] = Table 17, DNPs used in vivo, IAJD 4 mg/mL, Luc-mRNA 0.10 mg/mL, acetate pH 4.0

pH Sample [1] | Size distribution type (DLS curve) [1] | PDI [1] | Size (d, nm) [1] [nm] | Original size distribution type (DLS curve) [1] | pKa [2] | PDI [3, 5] | Size (d, nm) [3, 5] [nm] | PDI [3, 6] | Size (d, nm) [3, 6] [nm] | Ranking of stability [4] | Compound | Organs with luminescence: lung (lung) | Organs with luminescence: liver (liver)
4.95 | (U) | 0.278 | 92 | (U) | 6.32 | 0.267 | 92 | 0.267 | 92 | Excellent | CCCCCCCCCCCCCCCOc1cc(COC(=O)CCCN2CCN(C)CC2)cc(OCC(CC)CCCC)c1 (stereo not drawn) [IAJD 135, 3-((2-Ethylhexyl)oxy)-5-(pentadecyloxy)benzyl 4-(4-methylpiperazin-1-yl)butanoate] | Lung (weak), | liver (strong),
4.62 | (U) | 0.286 | 156 | (U) | 6.56 | 0.313 | 158 | 0.313 | 158 | Excellent | CCCCCCCCCCCCCCCOc1cc(COC(=O)CCCN2CCN(C)CC2)cc(OCCCCCCCCCC)c1 [IAJD 141, 3-(Decyloxy)-5-(pentadecyloxy)benzyl 4-(4-methylpiperazin-1-yl)butanoate] | Lung (weak), | liver (strong),

More lines, now with the values behind:

Compound | pH Sample [1] | Size distribution type (DLS curve) [1] | PDI [1] | Size (d, nm) [1] [nm] | Original size distribution type (DLS curve) [1] | pKa [2] | PDI [3, 5] | Size (d, nm) [3, 5] [nm] | PDI [3, 6] | Size (d, nm) [3, 6] [nm] | Ranking of stability [4] | Organs with luminescence: lung (lung) | Organs with luminescence: liver (liver)
CCCCCCCCCCCCCCCOc1cc(COC(=O)CCCN2CCN(CCO)CC2)cc(OCC(CC)CCCC)c1 (stereo not drawn) [IAJD 136, 3-((2-Ethylhexyl)oxy)-5-(pentadecyloxy)benzyl 4-(4-(2-hydroxyethyl)piperazin-1-yl)butanoate] | 4.57 | (U) | 0.296 | 153 | (U) | 6.5 | 0.307 | 149 | 0.307 | 149 | Excellent | Lung (weak), | liver (weak),
CCCCCCCCCCCCCCCOc1cc(COC(=O)CCCN2CCN(CCO)CC2)cc(OCCCCCCCCCC)c1 [IAJD 142, 3-(Decyloxy)-5-(pentadecyloxy)benzyl 4-(4-(2-hydroxyethyl)piperazin-1-yl)butanoate] | 4.52 | (U) | 0.266 | 214 | (B) | 6.69 | 0.293 | 230 | 0.293 | 230 | Excellent | Lung (weak), | liver (strong),
CCCCCCCCCCCCCCCOc1cc(COC(=O)CCCN2CCN(C)CC2)cc(OCCCCCCCCCCCC)c1 [IAJD 143, 3-(Dodecyloxy)-5-(pentadecyloxy)benzyl 4-(4-methylpiperazin-1-yl)butanoate] | 4.48 | (U) | 0.243 | 166 | (U) | 6.33 | 0.270 | 169 | 0.270 | 169 | Excellent | Lung (strong), | liver (strong),
CCCCCCCCCCCCCCCOc1cc(COC(=O)CCCN2CCN(CCO)CC2)cc(OCCCCCCCCCCCC)c1 [IAJD 144, 3-(Dodecyloxy)-5-(pentadecyloxy)benzyl 4-(4-(2-hydroxyethyl)piperazin-1-yl)butanoate] | 4.40 | (U) | 0.276 | 216 | (B) | 6.51 | 0.432 | 236 | 0.432 | 236 | Excellent | Lung (weak), | liver (weak),
